Here are results for 1 substance from patent publication US6967192B2, “Seventeen amino acid peptide (Peptide P) for treating ischemia and reperfusion injury” (University of Kentucky Research Foundation, priority 2001, dated 2005).

Several values for one entry are separate records, joined by “and”; a condition that tells them apart may be missing. Equal entries are not always repeated.

The subject of the assay is murine model of ischemia/reperfusion injury (cerebral ischemia). Description: Murine ischemia/reperfusion model: brain infarct size/volume by TTC staining. The class given is in vivo, mouse. The conditions noted are these: for infarct size (Damaged %), Average: 4 mg/Kg I.V. 1 hr after occlusion, 1 hr ischemia; for infarct size (Damaged %), Average / infarct volume (Corrected Volume), Average: mean ± SEM. More on the design: Damaged Cross Section Area (sum of sections), individual mice: unit: mm^2.

Where [1] appears, read: 4 mg/Kg after 1 hr ischemia, 24 hr reperfusion, n=6.
Setting [2] is: 4 mg/Kg after 1 hr ischemia, 24 hr reperfusion, mice No. 1-6, listed as Pep-P.

As to “Tyr-D-Ala-Phe-Ala-Asp-Val-Ala-Ser-Thr-Ile-Gly-Asp-Phe-Phe-His-Ser-Ile-NH2 (AFADVASTIGDFFHSI; D-Ala, C-terminal amide; printed: Ala-Phe-Ala-Asp-Val-Ala-Ser-Thr-Ile-Gly-Asp-Phe-Phe-His-Ser-Ile-) [Peptide P, linear 17 amino acid peptide with alanine as D-isomer]”, under “24 hr reperfusion, n=6”, the “infarct size (Damaged %), Average” value is on record as 16.87+/−3.3%. Besides, the “infarct size (Damaged %), Average” value (24 hr reperfusion, n=6, listed as Pep-P) is 16.87 ± 3.3%. Under setting [1], the “infarct volume (Corrected Volume), Average” value came out at 24±4.8 mm^3 and the “Damaged Cross Section Area (sum of sections), Average” value is given as 11.87 ± 2.4%. Moreover, the “infarct volume (Corrected Volume), Average” value (4 mg/Kg after 1 hr ischemia, 24 hr reperfusion, n=6, listed as Pep-P) is recorded as 23.74 ± 4.8% mm^3. Also, the “Corrected Volume, individual mice” value (4 mg/Kg after 1 hr ischemia, 24 hr reperfusion, mice No. 1-6, Damaged Cross Section Area × 2 mm section, listed as Pep-P) is 35.32 mm^3 and 5.10 mm^3 and 16.98 mm^3 and 35.86 mm^3 and 25.84 mm^3 and 23.36 mm^3. Under setting [2], the “Damaged %, individual mice” value was 25.77% and 3.94% and 12.69% and 24.58% and 18.16% and 16.10%; the “Damaged Cross Section Area (sum of sections), individual mice” value is 17.66 and 2.55 and 8.49 and 17.93 and 12.92 and 11.68. Moreover, the “reduction of infarct volume compared to control animals” value (4 mg/kg, after 24 h of reperfusion) was 59%. Moreover, the “Damaged Cross Section Area 1, individual mice” value (brain section 1, 4 mg/Kg after 1 hr ischemia, 24 hr reperfusion, listed as Pep-P, 4 mg/kg) was 3.69 and 0 (2×) and 1.42 and 1.89 and 0.27. The “Damaged Cross Section Area 2, individual mice” value (brain section 2, 4 mg/Kg after 1 hr ischemia, 24 hr reperfusion, listed as Pep-P, 4 mg/kg) is 5.66 and 0.32 and 1.38 and 3.27 and 4.59 and 1.8. The “Damaged Cross Section Area 3, individual mice” value (brain section 3, 4 mg/Kg after 1 hr ischemia, 24 hr reperfusion, listed as Pep-P, 4 mg/kg) is 6.47 and 1.12 and 2.63 and 7.23 and 2.22 and 5.15. Besides, the “Damaged Cross Section Area 4, individual mice” value (brain section 4, 4 mg/Kg after 1 hr ischemia, 24 hr reperfusion, listed as Pep-P, 4 mg/kg) was 1.84 and 1.11 and 3.06 and 5.54 and 6.11 and 4.46.
